We go through 1 compound from patent US20090117563A1, “Identification of TRPML3 (MCOLN3) as a Salty Taste Receptor and Use in Assays for Identifying Taste (Salty) Modulators and/or Therapeutics that Modulate Sodium Transport, Absorption or Excretion and/or Aldosterone and/or Vasopressin Production or Release” (priority 2007, published 2009).

The target in assay [1] is T1, A419P TRPML3 (Homo sapiens, UniProt Q8TDD5, A419P).
T1 construct: expressed in transfected cells
T1 sequence (Q8TDD5 1-553 A419P): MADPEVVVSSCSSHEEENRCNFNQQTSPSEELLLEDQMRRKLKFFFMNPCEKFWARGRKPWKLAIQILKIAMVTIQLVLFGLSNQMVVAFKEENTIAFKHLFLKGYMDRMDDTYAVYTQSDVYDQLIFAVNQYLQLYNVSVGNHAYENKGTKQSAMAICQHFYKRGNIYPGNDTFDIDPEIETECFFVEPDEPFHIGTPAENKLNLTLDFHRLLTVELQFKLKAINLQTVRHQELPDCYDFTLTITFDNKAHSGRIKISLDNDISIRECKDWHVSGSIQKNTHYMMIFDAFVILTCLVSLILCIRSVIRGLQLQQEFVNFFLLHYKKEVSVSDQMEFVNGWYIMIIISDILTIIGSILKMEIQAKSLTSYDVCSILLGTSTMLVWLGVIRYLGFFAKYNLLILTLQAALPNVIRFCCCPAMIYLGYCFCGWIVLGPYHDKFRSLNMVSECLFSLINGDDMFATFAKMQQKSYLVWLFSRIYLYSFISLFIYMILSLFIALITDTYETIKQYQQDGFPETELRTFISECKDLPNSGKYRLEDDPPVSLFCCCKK
The assay is described as follows: FLIPR membrane potential dye assay, HEK293 cells expressing A419P-TRPML3. Format: cell-based. Conditions: for effect on basal fluorescence, dose dependence: increasing concentrations of gadolinium, compared to RFP-transfected cells. The text has this: Specific cell-based assays for the discovery of TRPML3 modulators were developed which that could ultimately be used in food and beverages to modulate saltiness perception. A419P-TRPML3 function was monitored in HEK293 cells transiently transfected or transduced with the gene encoding A419P-TRPML3 and using specific membrane potential dyes (FMPs; Molecular Devices).
HEK293 cells were transiently transfected with RFP, αENaC or A419P-TRPML3 and were loaded with a membrane potential dye (R-8034; Molecular Devices) in HBSS at room temperature for 30 minutes. Membrane potential (fluorescent signal) was monitored on a FLIPR system (Molecular Devices).
HEK293 cells were transiently transfected with RFP or A419P-TRPML3 and were loaded with a membrane potential dye (R-8034; Molecular Devices) in HBSS at room temperature for 30 minutes. Membrane potential (fluorescent signal) was monitored on a FLIPR system (Molecular Devices).
HEK293 cells were transiently transfected with RFP or A419P-TRPML3 and were loaded with a membrane potential dye (R-8034; Molecular Devices) in HBSS at room temperature for 30 minutes. HBSS, NMDG and increasing concentrations of gadolinium were added to the cells and resulting changes in membrane potential (fluorescent signal) was monitored on a FLIPR system (Molecular Devices).
HEK293 cells were transiently transfected with RFP, A419P-TRPML3 or αENaC plasmid and were loaded with a membrane potential dye (R-8034; Molecular Devices) in HBSS at room temperature for 30 minutes. HBSS (control), 3 mM gadolinium and 30 uM Amiloride were added to the cells and resulting changes in membrane potential (fluorescent signal) was monitored on a FLIPR system (Molecular Devices).

Assay [2] concerns the target T1, A419P TRPML3. Kind of assay: Whole cell voltage clamp, A419P TRPML3 stably expressed in CHO cells. Format: cell-based. To be noted: 1 mM GdCl3 compared to buffer alone. From the text: The whole cell voltage clamp technique is an electrophysiology method that measures the macroscopic electrical current flowing across the entire plasma membrane though protein channels. Live mammalian cells are placed in a special microscope chamber containing extracellular solution. Guided by a micromanipulator and under visual control, a small diameter glass pipette filled with an electrically conductive salt solution is first attached to the cell membrane using gentle negative pressure resulting in a high resistance gigaOhm seal. The membrane patch within the pipette is disrupted using further suction resulting in the whole cell patch clamp configuration. The whole cell patch clamp configuration allows the combined measurement of all ion channels proteins within the membrane or macroscopic current. Using the patch clamp amplifier in combination with the whole-cell patch clamp configuration allows the operator to control the voltage, or potential difference across the entire cell membrane, as well as the both the internal and external ionic composition of the cell. […]

As to `[Cl][Gd]([Cl])[Cl]` [gadolinium, gadolinium chloride], the “effect on basal fluorescence counts, specificity” value on A419P TRPML3 [1] (3 mM gadolinium, A419P-TRPML3 versus αENaC transfected cells) is recorded as “preferentially reduces basal fluorescence counts”. The “effect on basal fluorescence, dose dependence” value on A419P TRPML3 [1] was “significantly reduces the basal fluorescence”; at A419P TRPML3 [1] (listed as Gadolinium), “reversed the increase in fluorescence in a dose-dependent and specific fashion”. Moreover, on A419P TRPML3 [1] (transiently transfected HEK293, single addition of gadolinium), the “effect on basal fluorescence (membrane potential)” value is given as “significantly reduces the basal fluorescence”. The “effect on inward current” value was “blocked” at A419P TRPML3 [2] (listed as Gadolinium chloride) and “decrease in inward current” at A419P TRPML3 [2] (listed as GdCl3).
